The test system of the assay is cleaved Notch1 (N1ICD). Description: In-vivo target inhibition study, cleaved N1ICD in lung by ELISA. Further details: species or system Balb/C mice. Conditions: mouse lung. On the procedure:
To evaluate in vivo effect of Compound 1, Isomer 2 and. Compound 2, Isomer 2 on inhibition of Notch processing pharmacodynamics (PD), animal studies were conducted in non-tumor bearing Balb/C mice (Charles River). A total of 5 mice are used for each group. Mice are fed ad libitum on normal chow. Treatment is initiated with oral administration (gavage) of compound or vehicle (1% Na-CMC in 0.25% Tween-80) in 0.2 mL volume. At designated time points (4 or 8 hours after the dose) following treatment, animals are sacrificed by CO2 asphyxiation and cervical dislocation. Tissues (Lungs) are removed and used for PD response analysis as measured by cleaved N1ICD.
To evaluate N1ICD levels in lung, approximately 75 mg is cut from the frozen tissue and minced prior to homogenization (actual mass recorded). […] are transferred to Lysing Matrix-D™ tubes and re-suspended in ice-cold XY lysis buffer (25 mM Tris pH 7.5, 10 μg/ml Trypsin/Chymotrypsin inhibitor, 10 μg/ml Aprotinin, 60 mM Beta-glycerol phosphate, 1% Triton® X-100, 10 mM NaF, 2.5 mM pyrophosphate, 150 mM NaCl, 15 mM ethylene diamine tetra acetic acid (EDTA) pH 8.0, 5 mM ethylene glycol-bis(2-aminoethylether)-N,N,N′,N′-tetra acetic acid (EGTA) pH 8.0, 1 mM Na Vanadate, 10 μg/ml Leupeptin, 1 mM dithiothreitol, 1 μM microcystin LR, 10 μg/ml N-p-tosyl-L-phenylalanine chloromethyl ketone (TPCK), 2 mM Nα-p-tosyl-L-arginine methyl ester hydrochloride (TAME), 15 mM 4-nitrophenyl phosphate di(tris) salt (PNPP), 0.1 mM 4-(2-aminoethyl) benzenesulfonyl fluoride hydrochloride (AEBSF), 5 mM benzamidine, 1 μM Okadaic Acid) containing 1× Complete tablet (Roche Complete™ No. 11697 498 001) and 1× Protease Inhibitor cocktail (Sigma-Aldrich P8340) at a mass: volume ratio of 75 mg/ml buffer. Tissues are homogenized in a Fast Prep FP120 homogenizer (Thermo Scientific, Rockford, Ill.) at a speed of 6.0 for 30 seconds at 4° C., followed by 15 minute incubation on ice. This is repeated for a total of 2-3 cycles until homogenization is complete. Lysates are spun in a 4° C. eppendorf centrifuge at 30,000 rpm for 15 minutes to remove debris. 400 μl of supernatant is removed and transferred to a new eppendorf tube and subjected to a freeze/thaw cycle. Samples are re-spun in a 4° C. eppendorf centrifuge at 30,000 rpm for 30 minutes and 120 μl of supernatant is collected for analysis. Total protein concentration is determined using Pierce BCA Protein Assay Kit™ (Thermo Scientific, Rockford, Ill.) using a Thermomax™ plate reader (Molecular Devices, Sunnyvale, Calif.). N1ICD levels are determined using a custom N1ICD ELISA. Analyte is captured with a cleaved Notch1 (Val1744)-specific custom rabbit monoclonal antibody and detected with a C-terminal Notch1 SULFO-TAG™ (Meso Scale Discovery, Gaithersburg, Md.) polyclonal sheep antibody (R&D Systems, Minneapolis, Minn.). Lysates are diluted to 2 μg/μl in ice-cold ELISA tris lysis buffer (R6OTX) (Meso Scale Discovery, Gaithersburg, Md.) containing 1× Complete tablet (Roche Complete™ mini No. 11 836 153 001) and 1× Protease Inhibitor cocktail (Sigma-Aldrich P8340), and 25 μl is added to the ELISA plate. Incubation of 50 μg protein lysate is done at RT for one hour each to capture analyte and with detection antibody. Plates are read on a Sector Imager 6000™ (Meso Scale Discovery, Gaithersburg, Md.). Background subtracted N1ICD is normalized to total protein and presented as % inhibition relative to the vehicle-treated group. N1ICD % inhibition and statistical significance (p value) as measured by Dunett's method in tumors harvested 4 hours after last dose for Compound 1, Isomer 2 or Compound 2, Isomer 2 is analyzed essentially as described above and summarized in Table 1.
On the technique in general: ELISA stands for enzyme-linked immunosorbent assay.

Where [1] appears, read: oral 10 mg/kg, 4 hours following treatment.

Each structure is given as a SMILES string. Where “and” joins values, the source holds several entries; their conditions need not be identical. Equal values may be shown once.

On to `COc1ccc2c(c1)N1CCC(C)(C)C1=CC(=O)C2NC(=O)[C@H](C)NC(=O)CCC(F)(F)F` (single isomer, unassigned) [Compound 1, Isomer 2], for which the “% N1ICD inhibition (Ave ± SD; n = 1)” value is −7 ± 26% (oral 0.3 mg/kg, 8 hours following treatment); 6 ± 15% (oral 1 mg/kg, 8 hours following treatment); 11 ± 13% (oral 3 mg/kg, 8 hours following treatment); 70 ± 12% under setting [1]; 52 ± 31% and 65 ± 11% (oral 10 mg/kg, 8 hours following treatment, listed as 1, Isomer 2, 10 mg/kg); 87 ± 3% (oral 30 mg/kg, 8 hours following treatment). The “% N1ICD inhibition (Ave ± SD; n = 1)” value (oral 100 mg/kg, 8 hours following treatment) was 92 ± 3%.
Turning to `C[C@H](NC(=O)CCC(F)(F)F)C(=O)NC1C(=O)C=C2N(CCC2(C)C)c2ncccc21` (single isomer, unassigned) [Compound 2, Isomer 2], the “% N1ICD inhibition (Ave ± SD; n = 1)” value is on record as 65 ± 11% under setting [1] and 15 ± 14% (oral 10 mg/kg, 8 hours following treatment).

Values taken from patent US10450317B2, “Notch pathway signaling inhibitor compounds” (Eli Lilly and Company, priority 2015, dated 2019).
